Data taken from patent publication US5162336A, “Tetrahydro-pyrido-indoles as cholecystokinin and gastrin antagonists” (Rhone-Poulenc Rorer Pharmaceuticals Inc., priority 1990, dated 1992).

Molecular target: T1, Gastrin receptor (Cavia porcellus, UniProt H0VZC5)
T1 construct: The fundic mucosa is gently scraped off the submucosa; from tissue; host or cells: gastric glands from fundic mucosa of Hartley guinea pig
T1 sequence (H0VZC5 1-426): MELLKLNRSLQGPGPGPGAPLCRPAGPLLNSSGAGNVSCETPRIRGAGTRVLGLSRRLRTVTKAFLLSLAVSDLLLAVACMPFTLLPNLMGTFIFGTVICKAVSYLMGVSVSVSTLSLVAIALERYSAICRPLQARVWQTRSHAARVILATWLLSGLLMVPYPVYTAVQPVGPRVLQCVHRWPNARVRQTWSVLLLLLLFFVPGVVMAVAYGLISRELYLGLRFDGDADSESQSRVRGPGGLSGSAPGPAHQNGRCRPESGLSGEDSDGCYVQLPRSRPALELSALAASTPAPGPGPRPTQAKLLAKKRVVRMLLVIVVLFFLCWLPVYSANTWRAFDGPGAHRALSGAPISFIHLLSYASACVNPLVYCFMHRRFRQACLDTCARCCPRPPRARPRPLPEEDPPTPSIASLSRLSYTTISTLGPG
Assay: Gastrin receptor binding assay (displacement of 125I-(Leu-15)-Gastrin from guinea pig fundic glands)
Parameters: species or system guinea pig (Hartley Strain)
Conditions: guinea pig fundic mucosa glands, 25° C., 30 min, read-out: In vitro Binding Data IC50 Gastrin
Experimental: (a) Phosphate Buffered Saline (PBS): 8.743 g NaCl, 523 mg K2 HPO4 and 76.8 mg NaH2 PO4 is dissolved in 1.0 liter of deionized water and the pH of the solution is adjusted to 7.3 with 5N NaOH.
(b) Buffer A: While adding Basal Medium Eagle (BME) containing Earle's Salts, L-glutamine and 25 mM HEPES, 3 liters of deionized water is stirred, followed by the addition and dissolution of […] of sodium bicarbonate. The solution is then equilibrated with 95% O2 /5% CO2 gas followed by titration to a pH of 7.4 with NaOH.
(c) Buffer B: 18.75 mg of collagenase and […] of BSA is dissolved in 25 ml of Buffer A.
(d) Buffer C: 0.3 g of BSA is dissolved in 300 ml of Buffer A.
(e) 6.25 mg Bacitracin is dissolved in 25 ml of Buffer A.
(f) ^125 I-(Leu-15)-Gastrin: 100 microcurie dissolved in 2.0 ml of Buffer A to make 50 microcurie/ml.
(g) ^125 I-(15-methionine)-Human Gastrin: 50 microcurie/ml.
(h) (Leu 15)-Gastrin: 5.2 mg of (Leu-15)- Gastrin is dissolved in 10 ml of Buffer A. At the time of assay 1:10 dilution is made and 10 μl assay tube is used.
A guinea pig (Hartley Strain) weighing 150-200 grams, is sacrificed by CO2 asphyxiation and the stomach immediately excised, cut along the greater curvature, cleaned out and immediately immersed in a beaker containing cold PBS, pH 7.3, to insure thorough cleaning. The fundic mucosa is gently scraped off the submucosa and added to a preweighed 50 ml plastic centrifuge tube containing 30 ml of cold Buffer A. The weight of the plastic centrifuge tube containing the buffer is then subtracted from the combined weight of the mucosa and the buffer-containing tube to give the weight of the mucosa. The weight of the mucosa thus determined is recorded for later calculations.
The mucosa is then washed twice in Buffer A. After the final wash, the tissue is minced and is placed in a 100-ml glass beaker containing about 1.0 ml of Buffer A, and washed twice again by repeated centrifugation at 50×g for 5 minutes each and aspiration of supernatant. The washed tissue fragments are then added to a glass Erlenmeyer flask containing 25 ml of Buffer B and incubated in a Dubnoff shaking water bath at 37° C. for 30 minutes in a 95% O2 - 5% CO2 atmosphere. After the incubation, the digested tissue fragments in the Collegenase-buffer solution are triturated, filtered through a 200-micron nylon mesh and centrifuged at 50×g for 5 minutes. The supernatant is aspirated and discarded, the tissue washed 2× in Buffer C, resuspended in same buffer, incubated in a 37° C. water bath in an atmosphere of 95% O2 - 5% CO2 for 5 minutes, and centrifuged. The pelleted glands are suspended in Buffer D at a desired concentration of 2x10^5 glands/ml to use in the receptor binding assay.
Six minisorp tubes (16×100 mm) are serially marked and divided into two groups thus: tubes #1, #2, and #3 are marked "T" for "Totals" and tubes #4, #5, and #6 are marked "NS" for "Non-Specifics." Into each of the six tubes are added 220 μl of prepared glands in Buffer D; 20 μl of Buffer A in tubes #1, #2, and #3; 10 μl, in tubes #4, #5 and #6; (10μ of (Leu-15)-Gastrin (25 μM) in tubes #4, #5, and #6. The six tubes are then transferred immediately to a 25° C. water bath and challenged each with 10 μl ^125 I-(Leu-15)-Gastrin diluted as per calculation. The tubes are then covered with a gas hood connected to a 95% O2 - 5% CO2 gas source and mechanically agitated in a shaker for 30 minutes.
At the end of the incubation period, the assay mixtures are each filtered through a Whatman glass fiber filter B on a Brandel tissue harvester and washed twice with Buffer A. The filters are pre-soaked in Buffer C before use. The filter strips are removed after the final wash and individual filters counted in a Gamma Counter. The counts from the "Non-Specific" tubes are then averaged and subtracted from the average "Totals" to give the Specific Counts. […]

Compound | IC50
CC(C)C[C@H](NC(=O)[C@@H]1Cc2c([nH]c3ccccc23)CN1)C(=O)N[C@@H](CC(=O)O)C(N)=O [Example 2, N-[(3S)-1,2,3,4-tetrahydro-9H-pyrido[3,4-b]indole-3-carboxyl]-L-leucyl-L-aspartic acid amide] | 60 µM
NC(=O)[C@H](CC(=O)O)NC(=O)[C@H]1Cc2c([nH]c3ccccc23)CN1 [Example 3, N-[(3R)-1,2,3,4-tetrahydro-9H-pyrido[3,4-b]-indole-3-carboxyl]-L-aspartic acid amide] | > 300 µM
NC(=O)[C@H](CC(=O)O)NC(=O)[C@@H]1Cc2c([nH]c3ccccc23)CN1 [Example 4, N-[(3S)-1,2,3,4-tetrahydro-9H-pyrido[3,4-b]indole-3-carboxyl]-L-aspartic amide] | > 300 µM
O=C(NCC(c1ccccc1)c1ccccc1)[C@H]1Cc2c([nH]c3ccccc23)CN1 [Example 5, (3R)-3-(2,2'-diphenyl)ethylcarbamoyl-1,2,3,4-tetrahydro-9H-pyrido[3,4-b]indole] | 59 µM
O=C(NC(c1ccccc1)c1ccccc1)[C@H]1Cc2c([nH]c3ccccc23)CN1 [Example 6, (3R)-3-diphenylmethylcarbamoyl-1,2,3,4-tetrahydro-9H-pyrido[3,4-b]indole] | 60 µM
NC(=O)[C@H](CC(=O)O)NC(=O)[C@H]1Cc2c([nH]c3ccccc23)CN1C(=O)c1ccccc1 [Example 8, N-[(3R)-2-benzoyl-1,2,3,4-tetrahydro-9H-pyrido[3,4-b]indole-3-carboxyl]-L-aspartic acid amide] | 78 µM
CC(C)C[C@H](NC(=O)[C@H]1Cc2c([nH]c3ccccc23)CN1C(=O)c1ccccc1)C(=O)N[C@@H](CC(=O)O)C(N)=O [Example 9, N-[(3R)-2-benzoyl-1,2,3,4-tetrahydro-9H-pyrido[3,4-b]indole-3-carboxyl]-L-leucyl-L-aspartic acid amide] | 25 µM
CC(C)C[C@H](NC(=O)[C@H]1Cc2c([nH]c3ccccc23)CN1C(=O)c1ccc2ccccc2c1)C(=O)N[C@@H](CC(=O)O)C(N)=O [Example 10, N-[(3R)-2-(2-naphthoyl)-1,2,3,4-tetrahydro-9H-pyrido[3,4-b]indole-3-carboxyl]-L-leucyl-L-aspartic acid amide] | 15 µM
Cc1cccc(NC(=O)N2Cc3[nH]c4ccccc4c3C[C@H]2C(=O)N[C@@H](CC(C)C)C(=O)N[C@@H](CC(=O)O)C(N)=O)c1 [Example 12, N-[(3S)-2-(3-methylphenylcarbamoyl)-1,2,3,4-tetrahydro-9H-pyrido[3,4-b]indole-3-carboxyl]-L-leucyl-L-aspartic acid amide] | 29 µM
CCCCCN(CCCCC)C(=O)[C@H]1Cc2c([nH]c3ccccc23)CN1C(=O)Nc1cccc(C)c1 [Example 13, (3R)-3-(N,N-dipentylcarbamoyl)-2-(3-methylphenylcarbamoyl)-1,2,3,4-tetrahydro-9H-pyrido[3,4-b]indole] | > 300 µM
CCOC(=O)c1cccc(NC(=O)[C@H]2Cc3c([nH]c4ccccc34)CN2C(=O)OCc2ccccc2)c1 [Example 16, ethyl 3-N-[(3R)-2-carbobenzoxy-1,2,3,4-tetrahydro-9H-pyrido[3,4-b]indole-3-carboxyl]aminobenzoate] | > 300 µM
CCOC(=O)c1ccccc1NC(=O)[C@H]1Cc2c([nH]c3ccccc23)CN1C(=O)OCc1ccccc1 [Example 17] | 100 µM
O=C(Nc1ccccc1C(=O)N1CCCC1)[C@H]1Cc2c([nH]c3ccccc23)CN1C(=O)OCc1ccccc1 [Example 18, pyrrolidine-2-N-[(3R)-2-carbobenzoxy-1,2,3,4-tetrahydro-9H-pyrido-[3,4-b]indole-3-carboxyl]aminobenzamide] | 55 µM
O=C(Nc1ccccc1C(=O)N1CCCC1)[C@H]1Cc2c([nH]c3ccccc23)CN1C(=O)c1ccc2ccccc2c1 [Example 20, pyrrolidine-2-N-[(3R)-2-(2-naphthoyl)-1,2,3,4-tetrahydro-9H-pyrido[3,4-b]indole-3-carboxyl]aminobenzamide] | 80 µM
CCCCN(CCCC)C(=O)c1ccccc1NC(=O)[C@H]1Cc2c([nH]c3ccccc23)CN1C(=O)OCc1ccccc1 [Example 22] | > 300 µM
CCOC(=O)c1ccccc1NC(=O)[C@@H]1Cc2c([nH]c3ccccc23)CN1C(=O)OCc1ccccc1 [Example 23, ethyl 2-N-[(3S)-2-carbobenzoxy-1,2,3,4-tetrahydro-9H-pyrido[3,4-b]indole-3-carboxyl]aminobenzoate] | > 300 µM

Compounds with a lower IC50, results first:

IC50 | Compound
12 µM | CC(C)C[C@H](NC(=O)[C@H]1Cc2c([nH]c3ccccc23)CN1)C(=O)N[C@@H](CC(=O)O)C(N)=O [Example 1, N-[(3R)-1,2,3,4-tetrahydro-9H-pyrido[3,4-b]indole-3-carboxyl]-L-leucyl-L-aspartic acid amide]
10 µM | CCOC(=O)c1ccc(NC(=O)[C@H]2Cc3c([nH]c4ccccc34)CN2C(=O)OCc2ccccc2)cc1 [Example 15, ethyl 4-N-[(3R)-2-carbobenzoxy-1,2,3,4-tetrahydro-9H-pyrido[3,4-b]indole-3-carboxyl]aminobenzoate]
8 µM | O=C(Nc1ccccc1C(=O)N1CCCC1)[C@@H]1Cc2c([nH]c3ccccc23)CN1C(=O)OCc1ccccc1 [Example 19, pyrrolidine-2-N-[(3S)-2-carbobenzoxy-1,2,3,4-tetrahydro-9H-pyrido[3,4-b]indole-3-carboxyl]aminobenzamide]
5.5 µM | CC(C)C[C@H](NC(=O)[C@H]1Cc2c([nH]c3ccccc23)CN1C(=O)Nc1ccccc1)C(=O)N[C@@H](CC(=O)O)C(N)=O [Example 14, N-[(3R)-2-phenylcarbamoyl-1,2,3,4-tetrahydro-9H-pyrido[3,4-b]indole-3-carboxyl]-L-leucyl-L-aspartic acid amide]
4 µM | Cc1cccc(NC(=O)N2Cc3[nH]c4ccccc4c3C[C@@H]2C(=O)N[C@@H](CC(C)C)C(=O)N[C@@H](CC(=O)O)C(N)=O)c1 [Example 11, N-[(3R)-2-(3-methylphenylcarbamoyl)-1,2,3,4-tetrahydro-9H-pyrido[3,4-b]indole-3-carboxyl]-L-leucyl-L-aspartic acid amide]
1.3 µM | NC(=O)[C@H](CC(=O)O)NC(=O)C1(NC(=O)[C@H]2Cc3c([nH]c4ccccc34)CN2C(=O)Nc2ccc(Cl)c(Cl)c2)CCCC1 [Example 26]
0.77 µM | CC[C@H](C)[C@H](NC(=O)[C@H]1Cc2c([nH]c3ccccc23)CN1C(=O)Nc1ccc(Cl)c(Cl)c1)C(=O)N[C@@H](CC(=O)O)C(N)=O [Example 24, N-[(3R)-2-(3,4-dichlorophenylcarbamoyl)-1,2,3,4-tetrahydro-9H-pyrido[3,4-b]indol-3-yl]carbonyl-L-isoleucyl-L-aspartic acid amide]
0.41 µM | CC(C)C[C@H](NC(=O)[C@H]1Cc2c([nH]c3ccccc23)CN1C(=O)Nc1ccc(Cl)c(Cl)c1)C(=O)NCCC(=O)O [Example 27]
